Laboratory results taken from US12502430B2, “Compound for photodynamic therapy of cancer, composition including same, and method for photodynamic therapy of cancer” (Pukyong National University Industry-University Cooperation …, priority 2021, dated 2025).
Each block holds one compound with its values, some of them ahead of it.

Columns and labels:
[1] = UV-Vis absorption and fluorescence emission spectroscopy; type: physicochemical; settings: in Toluene
Text: The photophysical properties of the collected products were studied by UV-Vis absorption and fluorescence emission spectroscopy, and the results are shown in FIGS. 1A to 1B and Table 1. In the UV-Vis absorption spectrum, BO and NO show absorption peaks in the region of about 380 nm, and BS and NS show absorption maximum values in the region of about 435 nm. The difference in the absorption peak may be confirmed from the shape difference of the HOMO-LUMO of FIG. 2A.

[2] = Singlet oxygen quantum yield determination; type: physicochemical; settings: determined with respect to Ru(bpy)3^2+; — = not observed
Text: Compounds BO and NO show strong fluorescence (ΦFBO=0.71, ΦF NO=0.28), but ISC is inefficient due to weak spin-orbit coupling (SOC).

HeLa cells [3] = assay: MTT photo/dark cytotoxicity assay with blue light irradiation; type: cell-based; settings: for cell viability (dark cytotoxicity): MTT, FIGS. 3A and 3B, 20 μM printed for BS; for IC50: normoxia, after blue light irradiation, read-out: IC50 (photocytotoxicity); for cancer cell toxicity without light: working concentration; for cell death under blue light irradiation: both normoxia and hypoxia
Procedure: Cell toxicity was evaluated by treating HeLa cells with 10 μM NS and BS solutions, respectively, incubating cells for 30 minutes, and then irradiating blue light (blue LED, 80 mW/cm^2) for 5 minutes. The results are shown in FIGS. 3A to 3C and FIGS. 4A to 4D. Based on the ^1O2 generation efficiency and photostability of BS and NS of FIGS. 3A to 3C, photo/dark cytotoxicity to HeLa cells was observed using MTT (traditional methyl thiazolytetralium) assay. FIGS. 3A and 3B show viability of 85% in BS (20 μM) and 97% in NS. The introduction of the C═S bond leads to a highly efficient ISC process, improving the generation of type I and type II ROS, thereby resulting in high ^1O2 quantum yield as well as O2· production. […] NS induces higher photocytotoxicity than BS by higher oxygen quantum yield and may be utilized as a phototheranostic agent with a low IC50 value in normoxia. Further, in FIG. 3C, NS (3 μM) has a cell viability of 29.6% under a normoxia condition and a cell viability of 36.5% under a hypoxia condition (mixed gas: 5% CO2, 1% O2 and 94% N2) so as to effectively induce photocytotoxicity to HeLa cells.

HeLa cells [4] = assay: DCFH-DA ROS fluorescence imaging after blue LED irradiation; type: cell-based; settings: 5 μM, DCFH-DA 10 μM, blue LED 5 minutes
Procedure: FIG. 4A is a diagram illustrating a fluorescence image of live HeLa cells after incubation in BS (5 μM) and DCFH-DA (10 μM) for 30 minutes, and FIG. 4C is a diagram illustrating a BS fluorescence image after light irradiation under blue LED light for 5 minutes thereafter (λ=473 nm and λem=490 to 590 nm) according to an example embodiment of the present disclosure in which these compounds were dissolved in DMSO.
FIG. 4B is a diagram illustrating s a fluorescence image of live HeLa cells after incubation in NS (5 μM) and DCFH-DA (10 μM) for 30 minutes according to an example embodiment of the present disclosure, and FIG. 4D is a diagram illustrating an NS fluorescence image after light irradiation under blue LED light for 5 minutes thereafter (λex=473 nm and λem=490 to 590 nm) in which these compounds were dissolved in DMSO.
Finally, their fluorescence is completely recovered after hypochlorite anion (OCl^−) treatment using the OCl^− probe of live HeLa cells. […] It may be confirmed that the C═S group plays an important role in the generation of type I ROS of previously unreported photosensitizers (PS).

[5] = Response and selectivity for detection of OCl− (UV-Vis and fluorescence); settings: 20 μM; for isosbestic point in UV-vis titration with OCl−: NaClO 0 to 75 μM, PBS pH 7.4 with 50% THF; for selectivity for OCl− among ROS, RNS and metal ions: OCl− 60 μM, PBS pH 7.4/THF (5/5); for fluorescence wavelength at which intensity was read: PBS buffer 10 mM pH 7.4 containing 50% THF
Procedure: Fluorescence intensity ratios were measured for each of BS and NS in […] (10 mM, pH=7.4) containing 50% THF at the presence of OCl^− (60 μM), ROO·(1 mM), NO·(1 mM), H2O2 (1 mM), TBHP (1 mM), ONOO^− (100 μM), ·OH (200 μM) and various metal ions (200 μM): Ag^+, Hg^2+, Fe^2+, and other ions (Ni^2+, Cu^2+, Zn^2+, Cd^2+, Mg^2+, Ca^2+, Cr^3+, Mn^2+, Fe^3+, Li^+, Na^+, K^+, Cs^+). Recognition of ROS, RNS and metal cations by BS and NS was investigated through colorimetric changes, UV absorption and fluorescence emission changes in PBS 7.4 pH/THF (5/5).
Similarly, in FIG. 6C, the broad absorption band decreases in the 420 to 600 nm range of the NS solution, whereas the absorption band at 370 nm gradually increases with OCI^−-addition (a characteristic of NO).
In Scheme 3, the photophysical change by oxidative desulfurization from the C═S groups of BS and NS to the corresponding C═O groups of BO and NO by hypochlorous acid (OCl^−) may be shown.

HeLa cells [6] = assay: Bio-imaging of OCl− by confocal fluorescence microscopy; type: cell-based; settings: 10 μM, 10 minutes, then OCl− 10 minutes
Procedure: HeLa cells were treated with 10 μM NS and BS solutions, respectively. Then, HeLa cells were incubated for 10 minutes and then incubated with hypochlorous acid (OCl^−) for 10 minutes to perform hypochlorous acid (OCl^−) detection fluorescence signal and bioimaging.

SMILES: S=c1c2cccc3cccc(c32)c2nc3cc4ccccc4cc3n12 [NS]
- ΔV (Stock shift) [1]: 110 nm
- ε × 10^3 [1]: 17.87 × 10^3 M^−1 cm^−1
- λems [1]: 551 nm
- ΦΔ (singlet oxygen quantum yield) [2]: 0.81
- cell viability, hypoxia (HeLa cells [3]; HeLa cells, 3 μM, hypoxia condition (5% CO2, 1% O2 and 94% N2), light): 36.5%
- cell viability, normoxia (HeLa cells [3]; HeLa cells, 3 μM, normoxia condition, light): 29.6%
- cell viability (dark cytotoxicity) (HeLa cells [3]; HeLa cells): 97%
- IC50 (HeLa cells [3]; HeLa cells): 1.03 µM
- cancer cell toxicity without light (HeLa cells [3]; HeLa cells): negligible cancer cell toxicity
- cell death under blue light irradiation (HeLa cells [3]): rapidly induce cell death
- ROS generation (DCFH-DA green signal) (HeLa cells [4]): may generate ROS
- isosbestic point in UV-vis titration with OCl− [5]: 411 nm
- selectivity for OCl− among ROS, RNS and metal ions [5]: high selectivity
- fluorescence wavelength at which intensity was read [5]: 559 nm
- intracellular OCl− detection (HeLa cells [6]): adequately detect OCl^−

- ΔV (Stock shift) [1]: 105 nm
- ε × 10^3 [1]: 8.54 × 10^3 M^−1 cm^−1
- λems [1]: 488 nm
- ΦF (fluorescence quantum yield) ([1]; Rhodamine 6G as the standard, — = not observed): 0.71
SMILES: O=c1c2cccc3cccc(c32)c2nc3ccccc3n12 [BO, reference compound]

SMILES: S=c1c2cccc3cccc(c32)c2nc3ccccc3n12 [BS]
- ΔV (Stock shift) [1]: 66 nm
- ε × 10^3 [1]: 10.85 × 10^3 M^−1 cm^−1
- λems [1]: 495 nm
- ΦΔ (singlet oxygen quantum yield) [2]: 0.66
- cell viability (dark cytotoxicity) (HeLa cells [3]; HeLa cells): 85%
- IC50 (HeLa cells [3]; HeLa cells): 5.81 µM
- cancer cell toxicity without light (HeLa cells [3]; HeLa cells): negligible cancer cell toxicity
- cell death under blue light irradiation (HeLa cells [3]): rapidly induce cell death
- ROS generation (DCFH-DA green signal) (HeLa cells [4]): may generate ROS
- isosbestic point in UV-vis titration with OCl− [5]: 403 nm
- selectivity for OCl− among ROS, RNS and metal ions [5]: high selectivity
- fluorescence wavelength at which intensity was read [5]: 505 nm
- intracellular OCl− detection (HeLa cells [6]): adequately detect OCl^−
